Values of other authors as cited in patent publication US20140234410A1, “COMBINATION PRODUCTS” (SIGMOID PHARMA LTD., priority 2004, published 2014).

What was measured:
thrombocythemia = details: co-administrated with a small dose of aspirin; people with thrombocythemia
[1] = adults
[2] = in vivo
tumour growth = details: simultaneous administration with R-verapamil
[3] = in vivo; remark: listed apart in the source

## NC(=O)NO [Hydroxyurea]
other
  solubility in water: freely soluble
thrombocythemia
  preventing serious bleeding and other complications versus anagrelide hydrochloride: more effective

## Cn1c(=O)c2[nH]cnc2n(C)c1=O [Theophylline]
[1]
  biological half life: < 6 hours
[2]
  concentrations with anti-inflammatory and immunostimulatory effect: 5 to 10 mg/L

## COCCOC(=O)C1=C(C)NC(C)=C(C(=O)OC(C)C)C1c1cccc([N+](=O)[O-])c1 (stereo not shown) [Nimodipine]
other
  solubility in water: practically insoluble

## CCCC(CCC)C(=O)O [valproic acid]
Cytochrome P450; two drugs administered in combination
  plasma concentrations of nimodipine: increased

## CC/C(=C(\c1ccccc1)c1ccc(OCCN(C)C)cc1)c1ccccc1 [tamoxifen, Tamoxifen]
Tumour growth
  tumour growth: significantly decreases

## COc1ccc2c(c1)[C@]13CCCC[C@@H]1[C@H](C2)N(C)CC3 [Dextromethorphan]
[3]
  adverse effects, share of people: less than 1%

## CN/C(=N/CCSCc1nc[nH]c1C)NC#N [cimetidine]
Cytochrome P450; effect of the co-administered drug
  bioavailability of nimodipine: approximate doubling

## CN(CCOc1ccc(CC2SC(=O)NC2=O)cc1)c1ccccn1 (stereo not shown) [rosiglitazone, Rosiglitazone]
Physiological range
  solubility as a function of pH: decreases with increasing pH
